Where “and” joins values, the source holds several entries; their conditions need not be identical. Identical values can stand only once. Toxic doses and inconclusive results are not listed.
Test system: BDF1 mice, P388 leukemia ip, median survival T/C
Test: NCI In Vivo Anticancer Drug Screen. Data for tumor model P388 Leukemia (intraperitoneal) in B6D2F1 (BDF1) mice
Settings: endpoint: median survival time, higher = longer survival
Outline: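 Compound-treated tumour-bearing mice were compared with vehicle-treated controls. Survival was recorded, and the value is the treated-group measurement divided by the control-group measurement (T/C).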

[1] = dose: 50.0 mg/kg/injection, schedule: Q01DX009 (ip), vehicle: saline with Tween-80
[2] = dose: 100.0 mg/kg/injection, schedule: Q01DX009 (ip), vehicle: saline with Tween-80
[3] = dose: 100.0 mg/kg/injection, schedule: Q04DX003 (ip), vehicle: saline with Tween-80
[4] = dose: 200.0 mg/kg/injection, schedule: Q01DX009 (ip), vehicle: saline with Tween-80
[5] = dose: 200.0 mg/kg/injection, schedule: Q04DX003 (ip), vehicle: saline with Tween-80
[6] = dose: 400.0 mg/kg/injection, schedule: Q04DX003 (ip), vehicle: saline with Tween-80
[7] = dose: 6.25 mg/kg/injection, schedule: Q01DX009 (ip), vehicle: water
[8] = dose: 12.5 mg/kg/injection, schedule: Q01DX009 (ip), vehicle: water
[9] = dose: 25.0 mg/kg/injection, schedule: Q01DX009 (ip), vehicle: water
[10] = dose: 400.0 mg/kg/injection, schedule: Q01DX009 (ip), vehicle: saline with Tween-80
[11] = dose: 100.0 mg/kg/injection, schedule: Q04DX003 (ip), vehicle: saline
[12] = dose: 200.0 mg/kg/injection, schedule: Q04DX003 (ip), vehicle: saline
[13] = dose: 400.0 mg/kg/injection, schedule: Q04DX003 (ip), vehicle: saline

Structure (SMILES): O=C1/C(=C/c2ccccc2)Cc2ccccc21
- T/C (dose: 25.0 mg/kg/injection, schedule: Q01DX009 (ip), vehicle: saline with Tween-80): 96 % of control
- T/C [1]: 96 % of control
- T/C [2]: 94 % of control
- T/C [3]: 107 % of control
- T/C [4]: 96 % of control
- T/C [5]: 100 % of control
- T/C [6]: 99 % of control

Structure (SMILES): O=C(CBr)c1ccc(I)cc1
- T/C (dose: 13.0 mg/kg/injection, schedule: Q01DX010 (ip), vehicle: saline): 109 % of control
- T/C (dose: 26.0 mg/kg/injection, schedule: Q01DX010 (ip), vehicle: saline): 109 % of control
- T/C (dose: 43.0 mg/kg/injection, schedule: Q01DX010 (ip), vehicle: saline): 90 % of control

Structure (SMILES): Nc1cc(OCc2ccccc2)cc(OCc2ccccc2)c1
- T/C [7]: 96 % of control
- T/C [8]: 96 % of control and 101 % of control
- T/C (dose: 12.5 mg/kg/injection, schedule: Q04DX003 (ip), vehicle: water): 105 % of control
- T/C [9]: 99 % of control and 105 % of control
- T/C (dose: 25.0 mg/kg/injection, schedule: Q04DX003 (ip), vehicle: water): 99 % of control
- T/C (dose: 50.0 mg/kg/injection, schedule: Q01DX009 (ip), vehicle: water): 97 % of control and 98 % of control
- T/C (dose: 50.0 mg/kg/injection, schedule: Q04DX003 (ip), vehicle: water): 99 % of control
- T/C (dose: 100.0 mg/kg/injection, schedule: Q01DX009 (ip), vehicle: water): 92 % of control and 100 % of control
- T/C (dose: 100.0 mg/kg/injection, schedule: Q04DX003 (ip), vehicle: water): 106 % of control and 107 % of control and 108 % of control
- T/C (dose: 200.0 mg/kg/injection, schedule: Q04DX003 (ip), vehicle: water): 95 % of control and 96 % of control

Structure (SMILES): N#CCCN(C(=S)Nc1ccc(Cl)c(Cl)c1)C1CCCCC1
- T/C [1]: 98 % of control and 117 % of control
- T/C [2]: 100 % of control and 119 % of control
- T/C [4]: 103 % of control and 119 % of control
- T/C [10]: 106 % of control

Structure (SMILES): [Cl][Rh][Cl].[NH-]c1ccc(S(N)(=O)=O)cc1.[NH-]c1ccc(S(N)(=O)=O)cc1.[NH-]c1ccc(S(N)(=O)=O)cc1.[NH-]c1ccc(S(N)(=O)=O)cc1
- T/C [3]: 108 % of control
- T/C [5]: 103 % of control
- T/C [6]: 107 % of control

Structure (SMILES): CC(=O)NC(C)C(C)C (stereo unspecified)
- T/C [11]: 100 % of control
- T/C [12]: 95 % of control
- T/C [13]: 100 % of control

Structure (SMILES): O=S(=O)(O)CCN1CCN(CCO)CC1
- T/C [11]: 91 % of control
- T/C [12]: 108 % of control
- T/C [13]: 95 % of control

Structure (SMILES): Cc1c(C/C(=N/O)C(=O)O)[nH]c(=S)[nH]c1=O
- T/C [3]: 100 % of control
- T/C [5]: 87 % of control
- T/C [6]: 100 % of control

Structure (SMILES): CCN(CC)CCNC(=O)c1ccc(COc2ccccc2)cc1
- T/C (dose: 50.0 mg/kg/injection, schedule: Q01DX005 (ip), vehicle: saline): 97 % of control
- T/C (dose: 100.0 mg/kg/injection, schedule: Q01DX005 (ip), vehicle: saline): 111 % of control
- T/C (dose: 200.0 mg/kg/injection, schedule: Q01DX005 (ip), vehicle: saline): 97 % of control

Structure (SMILES): O=C(O)C1CCC(=O)N1C(=O)OCc1ccccc1 (stereo unspecified)
- T/C [2]: 90 % of control
- T/C [4]: 90 % of control
- T/C [10]: 95 % of control

Structure (SMILES): CCCCCCCC(=O)NC1CC(O[C@H]2C[C@](O)(C(=O)CO)Cc3c(O)c4c(c(O)c32)C(=O)c2c(OC)cccc2C4=O)OC(C)C1O (stereo partly specified)
- T/C (dose: 0.78 mg/kg/injection, schedule: Q01DX009 (ip), vehicle: water): 104 % of control
- T/C [7]: 150 % of control
- T/C [8]: 156 % of control
- T/C (dose: 18.8 mg/kg/injection, schedule: Q04DX003 (ip), vehicle: water): 106 % of control
- T/C [9]: 177 % of control
- T/C (dose: 37.5 mg/kg/injection, schedule: Q04DX003 (ip), vehicle: water): 109 % of control
- T/C (dose: 75.0 mg/kg/injection, schedule: Q04DX003 (ip), vehicle: water): 104 % of control and 123 % of control
- T/C (dose: 150.0 mg/kg/injection, schedule: Q04DX003 (ip), vehicle: water): 119 % of control

Structure (SMILES): Nc1ncc(CNc2ccc(C(=O)NC(CCC(=O)O)C(=O)O)cc2)c(N)n1 (stereo unspecified)
- T/C (dose: 50.0 mg/kg/injection, schedule: Q01DX009 (ip), vehicle: Klucel (hydroxypropylcellulose) (HPC)): 89 % of control and 115 % of control
- T/C (dose: 200.0 mg/kg/injection, schedule: Q01DX009 (ip), vehicle: Klucel (hydroxypropylcellulose) (HPC)): 150 % of control

Structure (SMILES): SC1(SC2(S)CCCCC2)CCCCC1
- T/C [1]: 100 % of control
- T/C [2]: 100 % of control
- T/C [4]: 100 % of control

Structure (SMILES): NSc1ccc([N+](=O)[O-])cc1
- T/C (dose: 100.0 mg/kg/injection, schedule: Q01DX001 (ip), vehicle: other): 109 % of control

Structure (SMILES): NC(Cc1ccc(OC2CCCC2)c(N(CCCl)CCCl)c1)C(=O)O (stereo unspecified)
- T/C (dose: 0.5 mg/kg/injection, schedule: Q04DX003 (ip), vehicle: Klucel (hydroxypropylcellulose) (HPC)): 104 % of control
- T/C (dose: 1.0 mg/kg/injection, schedule: Q04DX003 (ip), vehicle: Klucel (hydroxypropylcellulose) (HPC)): 118 % of control
- T/C (dose: 2.5 mg/kg/injection, schedule: Q04DX003 (ip), vehicle: saline): 195 % of control
- T/C (dose: 5.0 mg/kg/injection, schedule: Q04DX003 (ip), vehicle: saline): 227 % of control
- T/C (dose: 7.5 mg/kg/injection, schedule: Q04DX003 (ip), vehicle: saline): 163 % of control
- T/C (dose: 15.0 mg/kg/injection, schedule: Q04DX003 (ip), vehicle: other): 179 % of control
- T/C (dose: 15.0 mg/kg/injection, schedule: Q04DX003 (ip), vehicle: saline): 154 % of control
- T/C (dose: 20.0 mg/kg/injection, schedule: Q04DX003 (ip), vehicle: other): 87 % of control
- T/C (dose: 30.0 mg/kg/injection, schedule: Q04DX003 (ip), vehicle: saline): 168 % of control

Structure (SMILES): C=C1C(=O)OC2CC(C)C3CCC(=O)C3(C)C(O)C12 (stereo unspecified)
- T/C (dose: 4.0 mg/kg/injection, schedule: Q01DX009 (ip), vehicle: Klucel (hydroxypropylcellulose) (HPC)): 90 % of control
- T/C (dose: 8.0 mg/kg/injection, schedule: Q01DX009 (ip), vehicle: Klucel (hydroxypropylcellulose) (HPC)): 95 % of control
- T/C (dose: 16.0 mg/kg/injection, schedule: Q01DX009 (ip), vehicle: Klucel (hydroxypropylcellulose) (HPC)): 104 % of control
- T/C (dose: 32.0 mg/kg/injection, schedule: Q01DX009 (ip), vehicle: Klucel (hydroxypropylcellulose) (HPC)): 111 % of control

Structure (SMILES): Cc1ccccc1-c1nc2c(N)nc(N)nc2nc1N
- T/C [2]: 122 % of control
- T/C [4]: 163 % of control
- T/C (dose: 264.0 mg/kg/injection, schedule: Q04DX003 (ip), vehicle: saline with Tween-80): 100 % of control and 104 % of control
- T/C [10]: 200 % of control
- T/C [6]: 118 % of control
- T/C (dose: 600.0 mg/kg/injection, schedule: Q04DX003 (ip), vehicle: saline with Tween-80): 118 % of control

Structure (SMILES): CCCCn1c(Cl)c(/C=N\Nc2ccccc2[N+](=O)[O-])c2ccccc21
- T/C (dose: 200.0 mg/kg/injection, schedule: Q01DX001 (ip), vehicle: Klucel (hydroxypropylcellulose) (HPC)): 89 % of control

Source: PubChem BioAssay AID328 (DTP/NCI, 2004)
